We go through 14 compounds from US10329277B2, “N-(2-((2-(dimethylamino)ethyl)(methyl)amino)-4-methoxy-5-((4-(3-methyl-2-OXO-2,3-dihydro-1h-benzo[d]imidazol-1-yl)pyrimidin-2-yl)amino)phenyl)acrylamide hydrochloride as an inhibitor of epidermal growth factor receptor activity” (CHIA TAI TIANQING PHARMACEUTICAL GROUP CO., LTD., priority 2015, dated 2019).

Where a name gives a salt, the structure may show the parent alone. Read-outs that look alike come from different tables or passages of the source.

Data set [1] has as its system Human skin squamous carcinoma cell line A431. Kind of data set: Cell proliferation assay, A431 (soft agar, CellTiter-Blue). The class given is cell-based. To be noted: A-431, 168 h, A431, treatment 7 days, read-out: Cell viability (IC50 nM) A431. On the procedure: Human skin squamous carcinoma cell line A431 was cultured in DMEM supplemented with 10% fetal bovine serum and 1% penicillin-plus-streptomycin in a cell incubator (37° C., 5% CO2). In the tests of the compounds, the bottom substrate was at a concentration of 0.6%. Cells were re-suspended with 0.3% low-melting-point agar, and then seeded in a 96-well plate at a density of 2,000 cells per well (100 μl). The compounds were diluted at a 3-fold gradient with a starting concentration of 10 mM. 2 μl of each concentration was taken and added to 98 μl of culture medium, and then 5.3 μl of the mixture was added to the cell culture medium (final DMSO concentration being 0.1%, v/v). After treatment for one week (7 days), 20 μl of CellTiter-Blue® (Promega) reagent was added, and the plate was incubated at 37° C. for 4 hours. Fluorescence signals were read on Envison (Perkin Elmer), and IC50 values of the compound for inhibiting cell proliferation were calculated using GraphPad Prism 5.0.
For orientation: Resazurin is reduced to fluorescent resorufin, in cell work by metabolically active cells.

Data set [2] has as its system Human non-small cell lung cancer cells NCI-H1975. Description: Cell proliferation assay, NCI-H1975 (CellTiter-Glo). Format: cell-based. To be noted: NCI-H1975, treatment 72 hours, read-out: Cell viability (IC50 nM) NCI-H1975. On the procedure: Human non-small cell lung cancer cells NCI-H1975 were cultured in RPIM-1640 culture medium supplemented with 10% fetal bovine serum and 1% penicillin-plus-streptomycin in a cell incubator (37° C., 5% CO2). The cells were seeded in a 96-well plate at a density of 2,000 cells per well (volume: 195 μl) and cultured overnight. On the next day, the compounds were added. In particular, the compounds were diluted at a 3-fold gradient with a starting concentration of 10 mM. 4 μl of each concentration was taken and added into 96 μl of culture medium. […] After treatment for 72 hours, the medium was aspirated and 30 μl of CellTiter-Glo® (Promega) reagent was added. Fluorescence signals were read on Envison (Perkin Elmer), and IC50 values of the compounds for inhibiting cell proliferation were calculated using GraphPad Prism 5.0.
On the technique in general: In ATP-based viability assays light output follows the ATP content of the culture.

In the next data set the target is T1, EGFR(WT) (Homo sapiens, UniProt P00533).
T1 construct: made in house; host or cells: insect cell expression system
T1 sequence (P00533 25-1210): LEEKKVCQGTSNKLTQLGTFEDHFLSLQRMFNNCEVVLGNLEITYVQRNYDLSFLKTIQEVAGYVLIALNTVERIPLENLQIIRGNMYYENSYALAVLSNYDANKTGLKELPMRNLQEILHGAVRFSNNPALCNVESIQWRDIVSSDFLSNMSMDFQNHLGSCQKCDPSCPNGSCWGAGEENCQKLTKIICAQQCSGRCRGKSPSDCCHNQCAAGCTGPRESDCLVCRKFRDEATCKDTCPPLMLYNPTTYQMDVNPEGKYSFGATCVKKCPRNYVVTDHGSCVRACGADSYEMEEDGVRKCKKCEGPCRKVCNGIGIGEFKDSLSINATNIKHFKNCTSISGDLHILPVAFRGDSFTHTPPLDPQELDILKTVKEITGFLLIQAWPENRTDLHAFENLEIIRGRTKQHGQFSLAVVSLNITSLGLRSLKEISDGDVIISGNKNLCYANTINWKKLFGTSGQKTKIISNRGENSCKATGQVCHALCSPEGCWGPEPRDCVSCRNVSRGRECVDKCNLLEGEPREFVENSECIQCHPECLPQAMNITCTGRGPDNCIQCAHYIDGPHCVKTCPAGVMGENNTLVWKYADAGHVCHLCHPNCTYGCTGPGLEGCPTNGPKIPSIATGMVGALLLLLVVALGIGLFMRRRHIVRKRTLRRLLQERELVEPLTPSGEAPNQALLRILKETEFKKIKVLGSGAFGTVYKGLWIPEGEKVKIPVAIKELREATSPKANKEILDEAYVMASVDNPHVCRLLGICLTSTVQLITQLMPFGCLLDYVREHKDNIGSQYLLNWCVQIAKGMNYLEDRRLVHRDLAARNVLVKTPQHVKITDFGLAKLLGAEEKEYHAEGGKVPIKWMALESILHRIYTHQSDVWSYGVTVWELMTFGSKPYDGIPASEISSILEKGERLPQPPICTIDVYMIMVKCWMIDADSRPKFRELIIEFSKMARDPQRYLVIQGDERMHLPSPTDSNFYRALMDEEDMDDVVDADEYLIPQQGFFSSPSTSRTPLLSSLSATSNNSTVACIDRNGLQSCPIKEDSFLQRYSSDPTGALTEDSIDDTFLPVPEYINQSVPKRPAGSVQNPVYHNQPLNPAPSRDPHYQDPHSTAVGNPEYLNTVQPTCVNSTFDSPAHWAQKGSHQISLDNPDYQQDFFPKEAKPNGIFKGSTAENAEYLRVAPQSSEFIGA
Description: In vitro enzymatic assay (HTRF), EGFR kinase. Format: biochemical. In general terms: In TR-FRET formats the signal depends on donor and acceptor labels being close together.

Data set [3] in a line: Pharmacokinetic assay in rats. To be noted: PO 10 mg/kg single dose, plasma. Format: in vivo. On the procedure: Healthy adult male rats were subjected to single-dose intragastric administration of the test compounds at a dose of 10 mg/kg with 20% sulfobutyl ether-β-cyclodextrin as an excipient. Before the experiment, the animals were fasted overnight, and the fasting time last from 10 hrs prior to the administration to 4 hrs after the administration. At 0.25, 0.5, 1, 2, 4, 6, 8 and 24 hrs after the intragastric administration, blood sampling was conducted. Approximately 0.3 mL of whole blood was collected from retro-orbital venous sinus, and placed into tubes that contained heparin as an anticoagulant. The samples were centrifuged at 4° C. and 4000 rpm for 5 min. The plasma was transferred into centrifuge tubes, and stored at −80° C. till being analyzed. Concentrations of test compounds in the plasma samples were analyzed with non-validated liquid chromatography-tandem mass spectrometry (LC-MS/MS). Plasma concentration-time data of individual animals was analyzed using WinNonlin (Professional Edition, version 6.3; Pharsight Company) software. Non-compartmental model was introduced in concentration analysis. The pharmacokinetic parameters of the test compounds were calculated.

The mark [4] stands for this setting: male rats, Hydrochloride, 10 mg/kg.

Usually IC50 stands for the concentration that gives 50% inhibition. Regarding `C=CC(=O)Nc1cc(Nc2nccc(-n3c(=O)n(C)c4cc(Cl)ccc43)n2)c(OC)cc1N(C)CCN(C)C` [Example 14, N-(5-(4-(5-chloro-3-methyl-2-oxo-2,3-dihydro-1H-benzo[d]imidazole-1-yl)pyrimidin-2-ylamino)-2-((2-(dimethylamino)ethyl)(methyl)amino)-4-methoxyphenyl) acrylamide Hydrochloride], the IC50 in data set [1] amounted to 538 nM; in data set [2] it was 4.56 nM.
As usually defined, the Tmax is the time at which the peak concentration occurs. A word on the Cmax: it is the maximum level reached in the sampled fluid or tissue. As to `C=CC(=O)Nc1cc(Nc2nccc(-n3c(=O)n(C)c4ccccc43)n2)c(OC)cc1N(C)CCN(C)C` [Example 1, N-(2-((2-(dimethylamino)ethyl)(methyl)amino)-4-methoxy-5-(4-(3-methyl-2-oxo-2,3-dihydro-1H-benzo[d]imidazol-1-yl)pyrimidin-2-ylamino)phenyl)acrylamide Hydrochloride], the half-inhibitory concentration (IC50) against EGFR(WT) was 9.07 nM; in data set [1], 22.5 nM; in data set [2], 2.76 nM. The Tmax in data set [3] (male rats) came out at 40.2 min. Besides, in data set [3] (setting [4]), the AUC0-INF is 667 ng·h/mL. Moreover, the Cmax in data set [3] (setting [4]) is 272 ng/mL. Further, the t1/2 in data set [3] (setting [4]) was 67.2 min.
On to `C=CC(=O)Nc1cc(Nc2nccc(-c3cn(C)c4ccccc34)n2)c(OC)cc1N(C)CCN(C)C` [AZD9291, reference compound], for which the IC50 in data set [1] came out at 53.5 nM; in data set [2], 9.08 nM.
As for `C=CC(=O)Nc1cc(Nc2ncc(Cl)c(-n3c(=O)n(C)c4ccccc43)n2)c(OC)cc1N(C)CCN(C)C` [Example 3, N-(5-(5-chloro-4-(3-methyl-2-oxo-2,3-dihydro-1H-benzo[d]imidazol-1-yl)pyrimidin-2-ylamino)-2-((2-(dimethylamino)ethyl)(methyl)amino)-4-methoxyphenyl) acrylamide Hydrochloride], on EGFR(WT), the IC50 turned out to be 196 nM.
For the compound `C=CC(=O)Nc1cc(Nc2nccc(-n3c(=O)oc4ccccc43)n2)c(OC)cc1N(C)CCN(C)C` [Example 5, N-(2-((2-(dimethylamino)ethyl)(methyl)amino)-4-methoxy-5-(4-(2-oxobenzo[d]oxazol-3(2H)-yl)pyrimidin-2-ylamino)phenyl) acrylamide Hydrochloride], the values for the IC50 (at EGFR(WT); in data set [2]) were 44.9 nM and 17 nM, respectively.
With `C=CC(=O)Nc1cc(Nc2nccc(-n3c(=O)[nH]c4ccccc43)n2)c(OC)cc1N(C)CCN(C)C` [Example 2, N-(2-((2-(dimethylamino)ethyl)(methyl)amino)-4-methoxy-5-(4-(2-oxo-2,3-dihydrobenzo[d]imidazol-1-yl)pyrimidin-2-ylamino)phenyl)acrylamide Hydrochloride], the IC50 stood at 2.59 nM at EGFR(WT) and 0.96 nM in data set [2].
`C=CC(=O)Nc1cc(Nc2nccc(-n3c(=O)n(C)c4cc(Br)ccc43)n2)c(OC)cc1N(C)CCN(C)C` [Example 15, N-(5-(4-(5-bromo-3-methyl-2-oxo-2,3-dihydro-1H-benzo[d]imidazole-1-yl)pyrimidin-2-ylamino)-2-((2-(dimethylamino)ethyl)(methyl)amino)-4-methoxyphenyl) acrylamide Hydrochloride]: the IC50 in data set [1] was 834 nM; in data set [2] it was 6.83 nM.
On EGFR(WT), `COC/C=C/C(=O)Nc1cc(Nc2nccc(-n3c(=O)n(C)c4ccccc43)n2)c(OC)cc1N(C)CCN(C)C` [Example 7, (E)-N-(2-((2-(dimethylamino)ethyl)(methyl)amino)-4-methoxy-5-(4-(3-methyl-2-oxo-2,3-dihydro-1H-benzo[d]imidazol-1-yl)pyrimidin-2-ylamino)phenyl)-4-methoxybut-2-enamide] came in with an IC50 of 164 nM.
A word on the AUC(0-inf): it is total exposure, with the tail of the curve extrapolated. Regarding `C=CC(=O)Nc1cc(Nc2nccc(-n3c(=O)n(C)c4ccccc43)n2)c(OC)cc1N(C)CCN(C)C` [Example 13, N-(2-((2-(dimethylamino)ethyl)(methyl)amino)-4-methoxy-5-(4-(3-methyl-2-oxo-2,3-dihydro-1H-benzo[d]imidazol-1-yl)pyrimidin-2-ylamino)phenyl)acrylamide], in data set [3] (male rats, 10 mg/kg), the Cmax is 94.4 ng/mL and the t1/2 was determined as 147 min. In data set [3] (male, rat, po, 10 mg/kg), this compound had an AUC(0-inf) of 401 ng·h/mL. Further, the Tmax in data set [3] (rat, male rats, read-out: Tmax) is 40.2 min.
In the case of `C=CC(=O)Nc1cc(Nc2nccc(-n3c(=O)n(C)c4ccccc43)n2)c(OC)cc1N(C)CCNC` [Example 12, N-(4-methoxy-2-(methyl(2-(methylamino)ethyl)amino)-5-(4-(3-methyl-2-oxo-2,3-dihydrobenzo[d]imidazol-1-yl)pyrimidin-2-ylamino)phenyl)acrylamide Hydrochloride], the IC50 is 5.26 nM against EGFR(WT) and 3.17 nM in data set [2].
Regarding `C=CC(=O)Nc1cc(Nc2nccc(-n3c(=O)[nH]c4cc(C)ccc43)n2)c(OC)cc1N(C)CCN(C)C` [Example 9, N-(2-((2-(dimethylamino)ethyl)(methyl)amino)-4-methoxy-5-(4-(5-methyl-2-oxo-2,3-dihydrobenzo[d]imidazol-1-yl)pyrimidin-2-ylamino)phenyl)acrylamide Hydrochloride], the IC50 on EGFR(WT) was determined as 3.93 nM.
With `C=CC(=O)Nc1cc(Nc2ncc(Cl)c(-n3c(=O)[nH]c4ccccc43)n2)c(OC)cc1N(C)CCN(C)C` [Example 4, N-(5-(5-chloro-4-(2-oxo-2,3-dihydro-1H-benzo[d]imidazol-1-yl)pyrimidin-2-ylamino)-2-((2-(dimethylamino)ethyl)(methyl)amino)-4-methoxyphenyl) acrylamide Hydrochloride], the IC50 against EGFR(WT) came to 20.6 nM; in data set [2], 2.87 nM.
As to `C=CC(=O)Nc1cc(Nc2nccc(-n3c(=O)n(C)c4cc(F)ccc43)n2)c(OC)cc1N(C)CCN(C)C` [Example 10, N-(2-((2-(dimethylamino)ethyl)(methyl)amino)-5-(4-(5-fluoro-3-methyl-2-oxo-2,3-dihydrobenzo[d]imidazol-1-yl)pyrimidin-2-ylamino)-4-methoxyphenyl) acrylamide Hydrochloride], the IC50 is 10.7 nM against EGFR(WT) and 1.46 nM in data set [2].
On the same counts, the results for `C=CC(=O)Nc1cc(Nc2nccc(-n3c(=O)[nH]c4cc(F)ccc43)n2)c(OC)cc1N(C)CCN(C)C` [Example 11, N-(2-((2-(dimethylamino)ethyl)(methyl)amino)-5-(4-(5-fluoro-2-oxo-2,3-dihydrobenzo[d]imidazol-1-yl)pyrimidin-2-ylamino)-4-methoxyphenyl)acrylamide Hydrochloride] are 2.79 nM and 3.7 nM.
